Source: US9745261B2, “Inhibitors of the MITF molecular pathway” (THE GENERAL HOSPITAL CORPORATION, priority 2013, dated 2017)

What was measured:
[1] = molecular target: T1, Adrenergic α1B (Rattus norvegicus, UniProt P15823); test: Radioligand binding, Adrenergic α1B
T1 construct: Eurofins Panlabs, Inc. (contract assay)

[2] = molecular target: T2, Neuropeptide Y Y1 (Homo sapiens, UniProt P25929); test: Radioligand binding, Neuropeptide Y Y1
T2 construct: Eurofins Panlabs, Inc

[3] = test system: A375 cells; test: A-375 cell cytotoxicity assay (CellTiter-Glo); type: cell-based, human; conditions: Homo sapiens, A-375; 24 hours, CellTiter-Glo; read-out: Antitarget Potency IC50 (μM) A375
Method: A375 cells were treated with compounds for 24 hours, and then cell viability was measured using the CellTiter-Glo Assay (Promega), a luciferase-based reagent that measures cellular ATP levels. The compounds were tested at different concentrations to determine IC50 values. Compounds that were active in the primary assay and were not toxic below 30 μM at 24 hours were considered for probe development. Data were normalized against DMSO in Genedata Screener's Assay Analyzer.
A-375 cells were maintained in DMEM (10% FBS, 1% Pen-Strep-Glutamine). Cells were fluid changed every 3 days and/or split upon reaching 90% confluency. For secondary assays, cells were thawed at 2 million cells per Falcon T175 flask. After 3 days, cells were passed to a Corning Triple flask (6-8 million cells) and plated after 3 days in the triple flask.
Day 1 • 1. Plate A-375 cells at 3,000 per well in 30 uL media (phenol red free DMEM/10% Fetal Bovine Serum/Penicillin/Streptomycin/L-Glutamine) • 2. Use Corning white 384-well, square, opaque-bottomed plates (Corning Catalog No. 8867BC)
Day 2 • 3. Pin 100 nL compound/DMSO solution (Cybi Well) into assay plates. (For HTS, required sentinel pinning with the positive control, parthenolide (6 mM)) • 4. Incubate 24 hours at 37° C. in Liconic incubator.
Day 3 • 5. […] Read on the Perkin-Elmer EnVision plate reader with luminescence (LUM) settings for 0.1 sec per well. […]

[4] = test system: MLANA; test: qPCR assay for MLANA expression in SK-MEL-5 cells; type: cell-based; conditions: Homo sapiens; SK-MEL-5 melanoma cells, up to 35 μM

T2 sequence (P25929 whole entry): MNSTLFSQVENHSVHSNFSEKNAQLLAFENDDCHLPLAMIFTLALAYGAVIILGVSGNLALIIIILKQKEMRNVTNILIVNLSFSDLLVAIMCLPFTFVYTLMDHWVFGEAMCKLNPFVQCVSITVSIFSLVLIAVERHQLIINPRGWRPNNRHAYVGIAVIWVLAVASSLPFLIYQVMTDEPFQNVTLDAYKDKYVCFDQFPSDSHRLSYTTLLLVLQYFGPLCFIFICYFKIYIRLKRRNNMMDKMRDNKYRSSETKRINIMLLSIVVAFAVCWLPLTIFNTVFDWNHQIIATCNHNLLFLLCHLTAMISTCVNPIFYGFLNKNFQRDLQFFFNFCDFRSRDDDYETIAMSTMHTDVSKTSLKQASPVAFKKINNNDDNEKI
T1 sequence (P15823 whole entry): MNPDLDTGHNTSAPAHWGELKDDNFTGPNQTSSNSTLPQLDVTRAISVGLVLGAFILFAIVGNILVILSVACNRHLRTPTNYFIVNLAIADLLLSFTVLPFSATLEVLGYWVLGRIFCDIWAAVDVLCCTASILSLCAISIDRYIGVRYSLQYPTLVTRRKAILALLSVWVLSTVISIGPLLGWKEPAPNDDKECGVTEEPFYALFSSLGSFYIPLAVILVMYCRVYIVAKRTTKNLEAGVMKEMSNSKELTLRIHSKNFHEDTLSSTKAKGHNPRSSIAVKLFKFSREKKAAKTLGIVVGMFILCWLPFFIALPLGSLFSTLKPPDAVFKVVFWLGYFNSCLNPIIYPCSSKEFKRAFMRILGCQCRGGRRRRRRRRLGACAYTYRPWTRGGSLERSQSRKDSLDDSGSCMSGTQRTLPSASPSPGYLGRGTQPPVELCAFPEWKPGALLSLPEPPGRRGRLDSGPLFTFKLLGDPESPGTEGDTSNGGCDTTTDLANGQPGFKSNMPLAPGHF

SMILES | inhibition at 10 µM [1] [%] | inhibition at 10 µM [2] [%] | IC50 [3] [µM] | EC50 [4] [nM]
NS(=O)(=O)c1ccc(NC2=CC(=O)c3ccccc3C2=O)cc1 [Example 1, 4-((1,4-Dioxo-1,4-dihydronaphthalen-2-yl)amino)benzenesulfonamide] | 16 | -6 | – | –
NS(=O)(=O)c1ccc(NC2=CC(=O)c3ccccc3C2=O)cc1 [4-((1,4-dioxo-1,4-dihydronaphthalen-2-yl)amino)benzenesulfonamide] | – | – | > 35 | 500
